# Assay results: patent publication US20260335323A1, “CHIMERIC MOLECULE” (UCL Business Ltd, priority 2023, published 2026)
# Legend:
# BRD4 = biological target: T1, BRD4 (Homo sapiens, UniProt O60885); assay: Western blot, BRD4 levels in CAL51 cells; type: cell-based; conditions: 100 nM, 72 hours
# T1 construct: Western blot (antibody CST #13440)
# Protocol: (§1) All treatments with (+)-JQ1, NZ-147 or NZ-175 were performed at 100 nM concentration over 72 hours.
# (§2) Cells were homogenised in protein lysis buffer consisting of 0.1 M Tris pH 8.0, 0.1 M NaCl, 5% glycerol, IGEPAL® CA-630 (#18896. Sigma-Aldrich) and 5 mM EDTA, 0.1 M N-ethyl maleimide (ThermoFisher, #23030) and protease inhibitor (Cell Signalling Technologies, #5871). Protein concentrations were determined using the BCA assay to ensure equal loading. […] The membranes were immunoblotted with primary antibodies, overnight at 4° C. […]
# (§3) Membranes were then incubated with horseradish peroxidase (HRP)-conjugated secondary antibodies (Rabbit #7074 and Mouse #7076) purchased from Cell Signalling Technologies for 1 hour and the HRP signal was detected using EZ-ECL Enhanced Chemiluminescence Detection Kit for HRP (#20-500-500, Sartorius), and imaged with an Alliance Q9 Advanced (UVITec). […]
# (§4) We generated a BRD4-ULKTAC (NZ-147) by conjugating (+)-JQ1 (BRD4-targeting moiety) to NZ-60 via a PEG linker (FIG. 8A). CAL51 cells (a triple negative breast cancer cell line) were treated with DMSO, (+)-JQ1 or NZ-147 at 100 nM for 72 hours then lysed and analysed by Western blot (FIG. 8B). […]
# c-MYC = assay: Western blot, c-MYC levels in CAL51 cells; type: cell-based, human; conditions: 100 nM, 72 hours
# Protocol: as §1, §2, §3, §4
# MAX = assay: Western blot, MAX levels in CAL51 cells; type: cell-based, human; conditions: 100 nM, 72 hours
# Protocol: as §1, §2, §3, §4
# A549 cells [1] = assay: Colony formation assay, A549; type: cell-based, human; conditions: A549, 100 nM, 72 hours
# Protocol: A549 and H1299 cells were seeded in 12 well plates at approximately 100 cells per well. In Example 8, wells were treated with DMSO, (+)-JQ1 or NZ-147. In Example 9, cells were treated with DMSO or NZ-175. Colonies were allowed to form over 120 h. Cells were fixed and stained with crystal violet staining solution, prepared in 70% ethanol.
# A colony formation assay was performed in A549 and H1299 cells, which were treated with DMSO, (+)-JQ1 or NZ-147 at 100 nM for 72 hours and stained with crystal violet (FIG. 10A).
# A colony formation assay was performed in A549 and H1299 cells, which were treated with DMSO or NZ-175 at 100 nM for 72 hours and stained with crystal violet (FIG. 16A).
# A549 cells [2] = assay: Cell viability assay (CellTiter Glo), A549; type: cell-based, human; conditions: A549, increasing concentrations
# Protocol: A549 and H1299 cells were seeded in OptiPlate-384 well plates and treated with increasing concentrations of (+)-JQ1 or NZ-147 from 0 μM to 10 µM in Example 8 and with increasing concentrations of NZ-175 from 0 µM to 10 µM in Example 9. Cells were treated for 120 h before using the luciferase based CellTiter Glo assay (Promega) to measure cell viability.
# Cell viability assay was performed in A549 and H1299 cells, which were treated with different concentrations of (+)-JQ1 or NZ-147 at 100 nM for 72 hours (FIG. 10B).
# Cell viability assay was performed in A549 and H1299 cells, which were treated with different concentrations of NZ-147 at 100 nM for 72 hours (FIG. 16B).
# c-MYC controlled genes = assay: RT-qPCR of c-MYC controlled genes in CAL51 cells; type: cell-based, human; conditions: 100 nM, 72 hours, vs (+)-JQ1 at equivalent concentration and duration
# Protocol: FIG. 11. RT-qPCR quantification of expression of c-MYC controlled genes in CAL51 triple negative breast cancer cell line treated with DMSO, 100 nM (+)-JQ1 or 100 nM NZ-147 for 72 hours. […] MDM2 (A) and CCNE (B) are controlled by cMYC in oncogenic settings, PAICS (C) is a putative target of c-MYC, and eIF4E (D) is a known target of cMYC. n=3, *p<0.05, ** p<0.01, *** p<0.001.
# RNA was extracted with the Qiagen RNeasy Mini kit following manufacturers protocol. RT-qPCR SYBR assay was carried out with Mesa Blue following manufacturers instructions, 80 ng RNA per well, experimental triplicates, BioRad CTX Connect qPCR machine. RNA levels were normalized to GAPDH. Experiments were done in biological triplicate. The primers used were as follows:
# The levels of c-MYC controlled genes (determined using RT-qPCR) in CAL51 triple negative breast cancer cell line after treatment with DMSO, 100 nM (+)-JQ1 or 100 nM NZ-147 for 72 hours is shown in FIG. 11. In particular MDM2 (FIG. 11A) and CCNE (FIG. 11B) are controlled by cMYC in oncogenic settings, PAICS (FIG. 11C) is a putative target of c-MYC, and elF4E (FIG. 11D) is a known target of c-MYC.
smiles,measurement,setting,value
"Cc1sc2c(c1C)C(c1ccc(Cl)cc1)=N[C@@H](CC(=O)NCCOCCOCCOCCn1cc(COc3ccc([C@@H](NC(=O)Nc4cc(C(F)(F)F)cc(C(F)(F)F)c4)C(=O)Nc4ccc(F)cc4F)cc3)nn1)c1nnc(C)n1-2 [NZ-147, (R)-2-(3-(3,5-bis(trifluoromethyl)phenyl)ureido)-2-(4-((1-(1-((S)-4-(4-chlorophenyl)-2,3,9-trimethyl-6H-thieno[3,2-f][1,2,4]triazolo[4,3-a][1,4]diazepin-6-yl)-2-oxo-6,9, 12-trioxa-3-azatetradecan-14-yl)-1H-1,2,3-triazol-4-yl)methoxy)phenyl)-N-(2,4-difluorophenyl) acetamide]",levels of BRD4,BRD4,reduced
same,levels of c-MYC,c-MYC,reduced
same,levels of MAX,MAX,reduced
same,colony formation,A549 cells [1],Fewest colonies formed
same,percentage of live cells,A549 cells [2],dose-dependent decrease in the percentage of live cells
same,impact on c-MYC controlled genes vs (+)-JQ1,c-MYC controlled genes,significantly more profound impact
